# Values quoted from earlier work, collected in patent publication US20080045604A1, “COMPOSITION AND METHOD FOR FACILITATING THE HEALING OF NON-HEALING AND SLOW-HEALING WOUNDS AND ULCERATIONS” (priority 2004, published 2008).
# Legend:
# Lemma minor = conditions: Fitoterapia 2005
# [1] = test system: pathogenic molds and dermatophytes; conditions: reported medicinal properties
# Neisseria gonorrhoeae = conditions: Biological Chemistry 2005
structure (smiles),measurement,setting,value
"COc1cc(/C=C/C(=O)CC(=O)/C=C/c2ccc(O)c(OC)c2)ccc1O [Curcumin, (1E,6E)-1,7-bis(4-hydroxy-3-methoxyphenyl)-1,6-heptadiene-3,5-dione]",phytotoxic against Lemma minor,Lemma minor,100%
same,antifungal activity / inhibition of pathogenic molds and dermatophytes,[1],no antifungal activity
same,adherence of bacteria to cells in infection,Neisseria gonorrhoeae,abolished the adherence of bacteria to cells
